# Tests used:
# Assay in all cases: relative viability (nuclei count vs DMSO), 5 days (fraction); higher = more cells survive
# NCI-H1944 = system: NCI-H1944
# How it was run: (§1)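 Lung cancer cell lines were pin-tool dosed in 1536-well plates on the day after seeding, with either a lone drug or a fixed anchor-drug dose plus five library-drug doses (not always all listed) in √10 steps. Nuclei were counted on 4× images after 5 days. Relative viability is the ratio of treated-well to vehicle-well nuclei counts, with each value a median of duplicate plates.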
# NCI-H650 = system: NCI-H650
# How it was run: as §1
# NCI-H2023 = system: NCI-H2023
# How it was run: as §1
# NCI-H1793 = system: NCI-H1793
# How it was run: as §1
# H3255 = system: H3255
# How it was run: as §1
# EMC-BAC-2 = system: EMC-BAC-2
# How it was run: as §1
# HCC-44 = system: HCC-44
# How it was run: as §1
# NCI-H2405 = system: NCI-H2405
# How it was run: as §1
# LU99A = system: LU99A
# How it was run: as §1
# SK-MES-1 = system: SK-MES-1
# How it was run: as §1
# NCI-H1651 = system: NCI-H1651
# How it was run: as §1
# NCI-H2085 = system: NCI-H2085
# How it was run: as §1
# HCC-827 = system: HCC-827
# How it was run: as §1
# EPLC-272H = system: EPLC-272H
# How it was run: as §1
# NCI-H1395 = system: NCI-H1395
# How it was run: as §1
# NCI-H520 = system: NCI-H520
# How it was run: as §1
# NCI-H838 = system: NCI-H838
# How it was run: as §1
# LCLC-103H = system: LCLC-103H
# How it was run: as §1
# COR-L23 = system: COR-L23
# How it was run: as §1
# ChaGo-K-1 = system: ChaGo-K-1
# How it was run: as §1
# NCI-H2087 = system: NCI-H2087
# How it was run: as §1
smiles,measurement,setting,value
COc1nc(C)cnc1NS(=O)(=O)c1cccnc1-c1ccc(-c2nnco2)cc1 [Zibotentan] + Nc1ncn([C@H]2C[C@H](O)[C@@H](CO)O2)c(=O)n1 [Decitabine] (partner 2 µM),relative viability,NCI-H1944; first compound 0.08 µM,0.433
same,relative viability,NCI-H1944; first compound 0.253 µM,0.431
same,relative viability,NCI-H1944; first compound 0.8 µM,0.425
same,relative viability,NCI-H1944; first compound 2.53 µM,0.426
same,relative viability,NCI-H650; first compound 0.08 µM,0.298
same,relative viability,NCI-H650; first compound 0.253 µM,0.297
same,relative viability,NCI-H650; first compound 0.8 µM,0.352
same,relative viability,NCI-H650; first compound 2.53 µM,0.311
same,relative viability,NCI-H2023; first compound 0.08 µM,0.245
same,relative viability,NCI-H2023; first compound 0.253 µM,0.211
same,relative viability,NCI-H2023; first compound 0.8 µM,0.203
same,relative viability,NCI-H2023; first compound 2.53 µM,0.214
same,relative viability,NCI-H1793; first compound 0.08 µM,0.503
same,relative viability,NCI-H1793; first compound 0.253 µM,0.471
same,relative viability,NCI-H1793; first compound 0.8 µM,0.528
same,relative viability,NCI-H1793; first compound 2.53 µM,0.635
same,relative viability,H3255; first compound 0.08 µM,0.671
same,relative viability,H3255; first compound 0.253 µM,0.601
same,relative viability,H3255; first compound 0.8 µM,0.586
same,relative viability,H3255; first compound 2.53 µM,0.564
same,relative viability,EMC-BAC-2; first compound 0.08 µM,1.01
same,relative viability,EMC-BAC-2; first compound 0.8 µM,0.968
same,relative viability,EMC-BAC-2; first compound 2.53 µM,1.01
same,relative viability,HCC-44; first compound 0.08 µM,1.01
same,relative viability,HCC-44; first compound 0.253 µM,0.924
same,relative viability,HCC-44; first compound 0.8 µM,1.01
same,relative viability,HCC-44; first compound 2.53 µM,0.988
same,relative viability,NCI-H2405; first compound 0.08 µM,0.764
same,relative viability,NCI-H2405; first compound 0.253 µM,0.684
same,relative viability,NCI-H2405; first compound 0.8 µM,0.767
same,relative viability,NCI-H2405; first compound 2.53 µM,0.73
same,relative viability,LU99A; first compound 0.08 µM,0.933
same,relative viability,LU99A; first compound 0.253 µM,0.848
same,relative viability,LU99A; first compound 0.8 µM,0.95
same,relative viability,LU99A; first compound 2.53 µM,1.06
same,relative viability,SK-MES-1; first compound 0.08 µM,0.389
same,relative viability,SK-MES-1; first compound 0.253 µM,0.285
same,relative viability,SK-MES-1; first compound 0.8 µM,0.447
same,relative viability,SK-MES-1; first compound 2.53 µM,0.365
same,relative viability,NCI-H1651; first compound 0.08 µM,0.657
same,relative viability,NCI-H1651; first compound 0.253 µM,0.607
same,relative viability,NCI-H1651; first compound 0.8 µM,0.567
same,relative viability,NCI-H1651; first compound 2.53 µM,0.516
same,relative viability,NCI-H2085; first compound 0.08 µM,0.566
same,relative viability,NCI-H2085; first compound 0.253 µM,0.54
same,relative viability,NCI-H2085; first compound 0.8 µM,0.592
same,relative viability,NCI-H2085; first compound 2.53 µM,0.56
same,relative viability,HCC-827; first compound 0.08 µM,0.341
same,relative viability,HCC-827; first compound 0.253 µM,0.333
same,relative viability,HCC-827; first compound 0.8 µM,0.341
same,relative viability,HCC-827; first compound 2.53 µM,0.343
same,relative viability,EPLC-272H; first compound 0.08 µM,0.41
same,relative viability,EPLC-272H; first compound 0.253 µM,0.304
same,relative viability,EPLC-272H; first compound 0.8 µM,0.366
same,relative viability,EPLC-272H; first compound 2.53 µM,0.394
same,relative viability,NCI-H1395; first compound 0.08 µM,0.736
same,relative viability,NCI-H1395; first compound 0.253 µM,0.68
same,relative viability,NCI-H1395; first compound 0.8 µM,0.708
same,relative viability,NCI-H1395; first compound 2.53 µM,0.674
same,relative viability,NCI-H520; first compound 0.08 µM,0.62
same,relative viability,NCI-H520; first compound 0.253 µM,0.441
same,relative viability,NCI-H520; first compound 0.8 µM,0.514
same,relative viability,NCI-H520; first compound 2.53 µM,0.575
same,relative viability,NCI-H838; first compound 0.08 µM,0.455
same,relative viability,NCI-H838; first compound 0.253 µM,0.414
same,relative viability,NCI-H838; first compound 0.8 µM,0.545
same,relative viability,NCI-H838; first compound 2.53 µM,0.461
same,relative viability,LCLC-103H; first compound 0.08 µM,0.718
same,relative viability,LCLC-103H; first compound 0.253 µM,0.727
same,relative viability,LCLC-103H; first compound 0.8 µM,0.738
same,relative viability,LCLC-103H; first compound 2.53 µM,0.709
same,relative viability,COR-L23; first compound 0.08 µM,0.506
same,relative viability,COR-L23; first compound 0.253 µM,0.402
same,relative viability,COR-L23; first compound 0.8 µM,0.573
same,relative viability,COR-L23; first compound 2.53 µM,0.455
same,relative viability,ChaGo-K-1; first compound 0.08 µM,0.512
same,relative viability,ChaGo-K-1; first compound 0.253 µM,0.493
same,relative viability,ChaGo-K-1; first compound 0.8 µM,0.508
same,relative viability,ChaGo-K-1; first compound 2.53 µM,0.55
same,relative viability,NCI-H2087; first compound 0.08 µM,0.342
same,relative viability,NCI-H2087; first compound 0.253 µM,0.287
same,relative viability,NCI-H2087; first compound 0.8 µM,0.325
same,relative viability,NCI-H2087; first compound 2.53 µM,0.331
